Experimental findings from ChEMBL document CHEMBL4261582, “Natural products as inhibitors of Leishmania major dihydroorotate dehydrogenase” (Eur J Med Chem, 2018) are described below.

Structures are written as SMILES.

In one test the target is T1, Dihydroorotate dehydrogenase (fumarate) (Leishmania major) (UniProt Q4QEW7).
T1 sequence (whole entry): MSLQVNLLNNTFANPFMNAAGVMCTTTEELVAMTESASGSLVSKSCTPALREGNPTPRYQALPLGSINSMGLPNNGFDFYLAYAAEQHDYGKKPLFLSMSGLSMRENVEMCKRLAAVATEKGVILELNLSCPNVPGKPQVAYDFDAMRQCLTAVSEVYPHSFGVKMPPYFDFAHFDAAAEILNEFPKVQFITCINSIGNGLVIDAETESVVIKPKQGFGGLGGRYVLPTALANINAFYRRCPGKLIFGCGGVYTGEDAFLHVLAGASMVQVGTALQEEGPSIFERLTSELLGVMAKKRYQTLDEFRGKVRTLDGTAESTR
Nature of the test: Binding affinity to Leishmania major DHODH assessed as change in melting temperature at 500 uM by differential scanning fluorimetry-based ThermoFMN assay.
Settings: not given
Take `C=C1C(=O)O[C@@H]2[C@H]3C(C)=CC(=O)C3=C(C)C[C@@H](OC(=O)[C@]3(C)O[C@@H]3C)[C@@H]12`: the ΔTm was -0.64 °C.

`C=C1C(=O)O[C@@H]2/C=C(\C)CC/C=C(/C=O)[C@@H](O)[C@@H](OC(=O)/C(C)=C\C)[C@@H]12`: the ΔTm is -1.07 °C.

With `CC[C@@H](C)[C@@]1(O)O[C@H]2C[C@@]3(C)OC(=CC3=O)/C(CO)=C\[C@H]3OC(=O)[C@@]1(C)[C@H]23`, the ΔTm is -0.32 °C.

Regarding `O=C(O)c1cc(=O)[nH]c(=O)[nH]1`, the ΔTm is 4.32 °C.

For another test, the target named is T1, Dihydroorotate dehydrogenase (fumarate) (Leishmania major). In words: Binding affinity to Leishmania major DHODH assessed as change in melting temperature at 100 uM by SYPRO orange dye-based differential scanning fluorimetry.
Settings: not given
`C=C1C(=O)O[C@@H]2[C@H]3C(C)=CC(=O)C3=C(C)C[C@@H](OC(=O)[C@]3(C)O[C@@H]3C)[C@@H]12`: the ΔTm was -0.38 °C.

`C=C1C(=O)O[C@@H]2/C=C(\C)CC/C=C(/C=O)[C@@H](O)[C@@H](OC(=O)/C(C)=C\C)[C@@H]12`: the ΔTm is -0.09 °C.

Turning to `CC[C@@H](C)[C@@]1(O)O[C@H]2C[C@@]3(C)OC(=CC3=O)/C(CO)=C\[C@H]3OC(=O)[C@@]1(C)[C@H]23`, the ΔTm is -0.13 °C.

`O=C(O)c1cc(=O)[nH]c(=O)[nH]1`: the ΔTm was 0.39 °C.

A further test deals with T2, Dihydroorotate dehydrogenase (fumarate) (Leishmania major, UniProt Q4QEW7).
T2 sequence (Q4QEW7 whole entry): T1 sequence (whole entry)
In words: Inhibition of recombinant oligo-histidine-tagged Leishmania major DHODH expressed in Escherichia coli BL21(DE3) cells using DHO as substrate measured after 60 secs. Conditions: read-out: IC50.
`C=C(C)C(=O)O[C@@H]1C[C@](C)(O)[C@@H]2C(=O)C=C(C)[C@@H]2[C@H]2OC(=O)C(=C)[C@@H]21`: the IC50 came to 662 µM.

`O=C(/C=C/c1ccc(O)c(O)c1)O[C@@H]1[C@H](O)C[C@@](O)(C(=O)O)C[C@H]1OC(=O)/C=C/c1ccc(O)c(O)c1`: the IC50 is 642 µM.

Consider `O=C(/C=C/c1ccc(O)c(O)c1)O[C@@H]1C[C@@](O)(C(=O)O)C[C@@H](O)[C@@H]1O`, for which the IC50 came to 1130 µM.

As to `C=C(C)C(=O)O[C@@H]1C[C@@](C)(O)[C@@H]2C(=O)C=C(C)[C@@H]2[C@H]2OC(=O)C(=C)[C@@H]21`, the IC50 stood at 168 µM.

Take `C=C1C(=O)O[C@@H]2[C@H]3C(C)=CC(=O)C3=C(C)C[C@@H](OC(=O)[C@]3(C)O[C@@H]3C)[C@@H]12`: the IC50 was determined as 585 µM.

`C=C1CC[C@H]2[C@@](C)(CCC[C@@]2(C)C(=O)O)[C@@H]1CCc1ccoc1`: the IC50 was 2620 µM.

In the case of `C=C1C(=O)O[C@@H]2/C=C(\C)CC/C=C(/C=O)[C@@H](O)[C@@H](OC(=O)/C(C)=C\C)[C@@H]12`, the IC50 was determined as 644 µM.

Consider `C=C1[C@@H]2CC[C@H]3[C@]4(C)CCC[C@@](C)(C(=O)O)[C@H]4CC[C@]3(C2)[C@H]1OC(=O)/C=C/c1ccccc1`, for which the IC50 is 1420 µM.

`CC[C@@H](C)[C@@]1(O)O[C@H]2C[C@@]3(C)OC(=CC3=O)/C(CO)=C\[C@H]3OC(=O)[C@@]1(C)[C@H]23`: the IC50 was determined as 985 µM.

Regarding `O=C(/C=C/c1ccc(O)c(O)c1)O[C@@H]1CC(O)(C(=O)O)C[C@@H](OC(=O)/C=C/c2ccc(O)c(O)c2)C1O` (stereo partly drawn), the IC50 was 1280 µM.

Consider `C/C=C(/C)[C@@]1(O)O[C@H]2C[C@@]3(C)OC(=CC3=O)/C(C)=C\[C@H]3OC(=O)[C@@]1(C)[C@H]23`, for which the IC50 was determined as 346 µM.

For `COc1ccc(/C=C/C(=O)NC2CCCN2C(=N)N)cc1O` (stereo not drawn), the IC50 was determined as 610 µM.

As to `C=C1C(=O)O[C@@H]2/C=C(/CO)C3=CC(=O)[C@@](C)(C[C@@H](OC(=O)/C(C)=C/C)[C@@H]12)O3` [BUDLEIN A], the IC50 was 263 µM.

On to `O=c1c(O)c(-c2ccccc2)oc2cc(O)cc(O)c12` [GALANGIN], for which the IC50 is 481 µM.

Take `O=c1c(O)c(-c2ccc(O)cc2)oc2cc(O)cc(O)c12` [KAEMPFEROL]: the IC50 was found to be 389 µM.

Take `O=C(O)c1ccc(O)c(O)c1` [PROTOCATECHUIC ACID]: the IC50 is 922 µM.

For `COc1ccc(-c2oc3cc(O)c(OC)c(O)c3c(=O)c2OC)cc1` [SANTIN], the IC50 is 262 µM.

As to `O=c1ccc2ccc(O)cc2o1` [UMBELLIFERONE], the IC50 worked out at 467 µM.

Staying with this test, now noted: read-out: pIC50 (converted).
In the case of `CC[C@@H](C)[C@@]1(O)O[C@H]2C[C@@]3(C)OC(=CC3=O)/C(CO)=C\[C@H]3OC(=O)[C@@]1(C)[C@H]23`, the IC50 is 794 µM.

A further test concerns the target T1, Dihydroorotate dehydrogenase (fumarate) (Leishmania major). In words: Binding affinity to Leishmania major DHODH assessed as change in melting temperature at 500 uM by SYPRO orange dye-based differential scanning fluorimetry.
Settings: not given
For the molecule `C=C1C(=O)O[C@@H]2[C@H]3C(C)=CC(=O)C3=C(C)C[C@@H](OC(=O)[C@]3(C)O[C@@H]3C)[C@@H]12`, the ΔTm is -0.75 °C.

In the case of `C=C1C(=O)O[C@@H]2/C=C(\C)CC/C=C(/C=O)[C@@H](O)[C@@H](OC(=O)/C(C)=C\C)[C@@H]12`, the ΔTm is -0.17 °C.

Turning to `CC[C@@H](C)[C@@]1(O)O[C@H]2C[C@@]3(C)OC(=CC3=O)/C(CO)=C\[C@H]3OC(=O)[C@@]1(C)[C@H]23`, the shift in melting temperature (ΔTm) was -0.96 °C.

As to `O=C(O)c1cc(=O)[nH]c(=O)[nH]1`, the ΔTm is 1.43 °C.

A further test has the same target. In words: Binding affinity to Leishmania major DHODH assessed as change in melting temperature at 1000 uM by differential scanning fluorimetry-based ThermoFMN assay.
Settings: not given
As for `C=C1C(=O)O[C@@H]2[C@H]3C(C)=CC(=O)C3=C(C)C[C@@H](OC(=O)[C@]3(C)O[C@@H]3C)[C@@H]12`, the ΔTm is -0.85 °C.

Consider `C=C1C(=O)O[C@@H]2/C=C(\C)CC/C=C(/C=O)[C@@H](O)[C@@H](OC(=O)/C(C)=C\C)[C@@H]12`, for which the ΔTm was -1.48 °C.

Turning to `CC[C@@H](C)[C@@]1(O)O[C@H]2C[C@@]3(C)OC(=CC3=O)/C(CO)=C\[C@H]3OC(=O)[C@@]1(C)[C@H]23`, the ΔTm is -0.61 °C.

Regarding `O=C(O)c1cc(=O)[nH]c(=O)[nH]1`, the ΔTm was 6.12 °C.

The target is the same in another test. In words: Binding affinity to Leishmania major DHODH assessed as change in melting temperature at 1000 uM by SYPRO orange dye-based differential scanning fluorimetry.
Settings: not given
For the molecule `C=C1C(=O)O[C@@H]2[C@H]3C(C)=CC(=O)C3=C(C)C[C@@H](OC(=O)[C@]3(C)O[C@@H]3C)[C@@H]12`, the ΔTm was -1.01 °C.

For `C=C1C(=O)O[C@@H]2/C=C(\C)CC/C=C(/C=O)[C@@H](O)[C@@H](OC(=O)/C(C)=C\C)[C@@H]12`, the ΔTm is -0.07 °C.

Regarding `CC[C@@H](C)[C@@]1(O)O[C@H]2C[C@@]3(C)OC(=CC3=O)/C(CO)=C\[C@H]3OC(=O)[C@@]1(C)[C@H]23`, the ΔTm was -1.83 °C.

With `O=C(O)c1cc(=O)[nH]c(=O)[nH]1`, the ΔTm was 1.62 °C.

The next test has the same target. In words: Binding affinity to Leishmania major DHODH assessed as change in melting temperature at 100 uM by differential scanning fluorimetry-based ThermoFMN assay.
Settings: not given
On to `C=C1C(=O)O[C@@H]2[C@H]3C(C)=CC(=O)C3=C(C)C[C@@H](OC(=O)[C@]3(C)O[C@@H]3C)[C@@H]12`, for which the ΔTm is -0.26 °C.

Turning to `C=C1C(=O)O[C@@H]2/C=C(\C)CC/C=C(/C=O)[C@@H](O)[C@@H](OC(=O)/C(C)=C\C)[C@@H]12`, the ΔTm was -0.48 °C.

Turning to `CC[C@@H](C)[C@@]1(O)O[C@H]2C[C@@]3(C)OC(=CC3=O)/C(CO)=C\[C@H]3OC(=O)[C@@]1(C)[C@H]23`, the ΔTm was -0.15 °C.

As for `O=C(O)c1cc(=O)[nH]c(=O)[nH]1`, the ΔTm turned out to be 1.29 °C.

In a further test the test system is Trypanosoma cruzi. In words: Antitrypanosomal activity against Trypanosoma cruzi Tulahuen C2C4 trypomastigotes infected in rat skeletal myoblasts L-6 cells after 96 hrs by CPRG/Nonidet reagent based spectrophotometric method. The class given is functional, organism-based. Conditions: Tulahuen C2C4, L6, 96 h.
Regarding `O=c1c(O)c(-c2ccccc2)oc2cc(O)cc(O)c12` [GALANGIN], the IC50 was determined as 73.3 µM.

In turn, `O=c1c(O)c(-c2ccc(O)cc2)oc2cc(O)cc(O)c12` [KAEMPFEROL] displayed an IC50 of 83.5 µM.

For the molecule `O=c1ccc2ccc(O)cc2o1` [UMBELLIFERONE], the IC50 was found to be 555 µM.

The subject of another test is Leishmania donovani. In words: Antileishmanial activity against Leishmania donovani MHOM/ET/67/L82 amastigotes after 72 hrs by Alamar Blue assay. Conditions: MHOM/ET/67/L82, 72 h. Format: functional, organism-based.
Molecule `O=c1c(O)c(-c2ccccc2)oc2cc(O)cc(O)c12` [GALANGIN] had an IC50 of 5.55 µM.

Molecule `O=c1c(O)c(-c2ccc(O)cc2)oc2cc(O)cc(O)c12` [KAEMPFEROL] came in with an IC50 of 10.1 µM.

As for `O=c1ccc2ccc(O)cc2o1` [UMBELLIFERONE], the IC50 turned out to be 172 µM.

The next test concerns Trypanosoma brucei rhodesiense. In words: Antitrypanosomal activity against Trypanosoma brucei rhodesiense STIB 900 trypomastigotes after 72 hrs by Alamar Blue assay. Format: functional, organism-based. Particulars: STIB 900, 72 h.
`O=c1c(O)c(-c2ccccc2)oc2cc(O)cc(O)c12` [GALANGIN] displayed an IC50 of 61.1 µM.

Molecule `O=c1c(O)c(-c2ccc(O)cc2)oc2cc(O)cc(O)c12` [KAEMPFEROL] displayed an IC50 of 32.2 µM.

The molecule `O=C(O)c1ccc(O)c(O)c1` [PROTOCATECHUIC ACID] returned an IC50 of 112 µM.

In turn, `O=c1ccc2ccc(O)cc2o1` [UMBELLIFERONE] displayed an IC50 of 319 µM.
